According to publication PMC6906431, “Selective small molecule PARG inhibitor causes replication fork stalling and cancer cell death” (Nature Communications, 2019):

What was measured:
Human PARG = molecular target: T1, Human PARG (Homo sapiens, UniProt Q86W56); assay: Gel-based PARG activity assay; assay type: biochemical
T1 construct: The human PARG (hPARG) catalytic domain (residues 389–976) was cloned in pET28a (Novagen); His-tag (N); made in house; host or cells: E. coli Rosetta
Procedure: PARP1C (2 μM) is enzymatically auto-modified in a reaction containing the PARP1 DBD (2 μM), a 24 mer nicked DNA oligo (2 μM), and NAD^+ (300 μM) for 1 h at 37 °C, as described previously. Human PARG^389–976 (1 nM) was pre-incubated with compounds for 1 h at room temperature. The reaction was initiated by the addition of PARylated PARP1 (final concentration of 500 nM) and quenched after 30 min incubation at room temperature by adding SDS-PAGE sample buffer. The gel was visualized by sypro-ruby staining[18] and the retained PARylated PARP1C species were quantified using ImageJ[59]. PARylated PARP1C that migrates slower than unmodified PARP1C was quantified. […] The IC50 values were determined by fitting the dose-response data for each compound to a four-parameter logistic equation using SigmaPlot (Systat Software Inc.).
To test the specificity of JA2131, human PARG^389–976 (1 nM) was pre-incubated with JA2131 (5, 10, and 20 μM) in the presence and absence of 0.1% Triton-X 100 or 0.1 mg/ml BSA for 1 h at room temperature. The reaction was initiated, quenched, visualized, and quantified as described above. […]
PARG activity assay. […]
PARP1 (500 nM). The reaction was quenched after a 30 -minu te in cu ba tion a t roo m te mpe ra tu re by adding SDS-PA GE sa mp le bu f fe r. PARylated PARP1C runs as a smear on SDS -PAGE that is reduced to a single band by PARG treatment. […]
2). (b) Qu an t if ica t ion o f the dose-response PARG inhibition by JA2 -3 using the gel-based PARG activity assay. hPARG (1 nM) was preincubated with increasing concentrations (0.032 – 1 µM) of JA2-3 f o r 1 hour at room temperature before PARylated PARP1C (500 nM) was added. The reaction was quenched after a 30-minu te incubation at room temperature. PARylated PARP1C migrates slower than unmodified PARP1C and was quantified using ImageJ. […] The rate of the PARG-dependent signal loss in the TR-FRET PAR turnover assay is not equivalent to the steady-state rate of PAR turnover, because the TR-FRET assay can’t detect signal loss until the length of PAR chains become shorter than 7 ADP-ribose units. Therefore, we used the gel-based PARG activity assay to accurately determine the IC50 values throughout the manuscript .

[1] = Sulforhodamine B (SRB) cytotoxicity assay; assay type: cell-based, human; conditions: human; for viability at 72 h, 25 µM: log concentration μM 1.39794
Procedure: (§1) Fig. 6 Selective inhibition of PARG by xanthine derivative JA2131. a Clonogenic survival assays of PC3, MDA-MB-231, and MCF-7 cells treated with PARGi. Cells were treated with either DMSO or 10 µM JA2131 for 2 h, irradiated with 3 Gy (MDA-MB-231 and MCF-7), 7 Gy (PC3) IR and grown for ~2 weeks, then colonies were fixed with methanol and stained with crystal violet. The results of three independent experiments are shown. Error bars = the standard error of the mean (SEM). b dose-response of JA2131 in MDA-MB-231 cells with and without IR. Cells were treated with designated concentrations of JA2131 for 2 h and then either left untreated or exposed to 3 Gy IR and allowed to recover for 1 h before lysis. Total protein was immunoblotted with anti-PAR antibody (upper panel), stripped and reprobed with anti-PCNA as a loading control. c MDA-MB-231 cells with stable scrambled shRNA (WT) or stable PARG shRNA, knockdown (KD), were treated with 5 μM JA2131 for 2 h, lysed and then total lysates were immunoblotted for anti-PAR (upper panel) followed by anti-PARG (upper middle panel), anti-PARP1 (lower middle panel) and anti-actin (bottom panel) antibody. […] Stable cells with scramble shRNA (control) and shPARG (PARG-KD) cells were treated with an increasing concentration of JA2131 for growth inhibitory IC50 determination. The data was normalized against 100% survival at the lowest inhibitor concentration. Error bars show the percent coefficient of variation. Equivalent concentrations of DMSO were used as a negative control. e The cytotoxicity of JA2131 along with PDD, Veliparib and Doxorubicin against MRC-5 cells. Error bars show the percent coefficient of variation. f CETSA for in-cell JA2131 target engagement. Normalized anti-PARG western blot intensities of three independent experiments were fitted as above and the estimated aggregation temperature (Tagg) is shown in the tabulated insert. Source Data are provided as a Source Data file.

MDA-MB-231 PARG-KD cells = assay: Sulforhodamine B (SRB) cytotoxicity assay; assay type: cell-based, human
Procedure: as §1

HeLa cells = assay: DNA fiber assay, replication fork progression; assay type: cell-based, human; conditions: JA2131 10 µM
Excerpt: Normalized % viabilities are plotted against log concentration. Error bars show the percent coefficient of variation. […] Mann-Whitney test was used to generate the p-value. The DNA spread assay is the representation of two independently repeated experiments. Source Data are provided as a Source Data file.

T1 sequence (Q86W56 389-976): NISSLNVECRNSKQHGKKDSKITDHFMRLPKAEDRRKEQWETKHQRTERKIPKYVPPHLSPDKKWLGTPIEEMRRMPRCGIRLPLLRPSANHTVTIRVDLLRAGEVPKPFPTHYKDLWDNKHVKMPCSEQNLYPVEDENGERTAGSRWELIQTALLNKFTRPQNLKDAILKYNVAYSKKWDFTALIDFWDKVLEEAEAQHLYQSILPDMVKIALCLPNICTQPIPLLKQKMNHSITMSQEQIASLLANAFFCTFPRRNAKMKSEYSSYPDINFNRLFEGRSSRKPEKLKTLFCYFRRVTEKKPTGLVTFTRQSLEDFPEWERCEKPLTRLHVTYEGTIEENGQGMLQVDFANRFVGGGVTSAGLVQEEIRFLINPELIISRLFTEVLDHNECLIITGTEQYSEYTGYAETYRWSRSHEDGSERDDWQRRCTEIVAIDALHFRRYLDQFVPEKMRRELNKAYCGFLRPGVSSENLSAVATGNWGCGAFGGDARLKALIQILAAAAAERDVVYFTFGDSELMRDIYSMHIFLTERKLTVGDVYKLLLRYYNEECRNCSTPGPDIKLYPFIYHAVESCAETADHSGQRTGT

potency difference JA2131 (6´-thiocarbonyl) vs JA2120 (6´-carbonyl) (Human PARG): more than 50 fold | inhibition at 0.0488281 µM (Human PARG; [L] 0.0488281 uM): 13.8% | inhibition at 0.0976562 µM (Human PARG; [L] 0.0976562 uM): 26.2% | inhibition at 0.195312 µM (Human PARG; [L] 0.195312 uM): 34.6% | inhibition at 0.390625 µM (Human PARG; [L] 0.390625 uM): 58.8% | inhibition at 0.78125 µM (Human PARG; [L] 0.78125 uM): 62.5% | inhibition at 1.5625 µM (Human PARG; [L] 1.5625 uM): 75.5% | inhibition at 3.125 µM (Human PARG; [L] 3.125 uM): 84.3% | inhibition at 6.25 µM (Human PARG; [L] 6.25 uM): 98.7% | inhibition at 12.5 µM (Human PARG; [L] 12.5 uM): 99.5% | inhibition at 25 µM (Human PARG; [L] 25 uM): 104% | inhibition at 50 µM (Human PARG; [L] 50 uM): 94% | IC50 (Human PARG; hPARG 1 nM, PARylated PARP1C 500 nM, 30 min): 400 nM
SMILES: Cn1c(=S)c2[nH]c(SCCN3CCOCC3)nc2n(C)c1=O [JA2131]
effect of detergent or nonspecific protein on PARG inhibition (Human PARG; JA2131 5, 10, 20 μM, 0.1% Triton-X 100 or 0.1 mg/ml BSA): Neither the addition of Triton-X 100 nor BSA significantly altered the inhibitory potency | viability at 72 h, 25 µM ([1]; MDA-MB-231 cells with stable PARG shRNA knockdown (PARG-KD), 72 h): 80.4% | viability at 72 h, 50 µM ([1]; MDA-MB-231 cells with stable PARG shRNA knockdown (PARG-KD), log concentration μM 1.69897, 72 h): 70.2% | viability at 72 h, 25 µM ([1]; MDA-MB-231 control cells with stable scramble shRNA): 17% | viability at 72 h, 1.95 µM ([1]; MRC-5 cells, log [concentration] μM 0.29): 98.4% | viability at 72 h, 3.89 µM ([1]; MRC-5 cells, log [concentration] μM 0.59): 99.3% | viability at 72 h, 7.76 µM ([1]; MRC-5 cells, log [concentration] μM 0.89): 98.5% | viability at 72 h, 15.5 µM ([1]; MRC-5 cells, log [concentration] μM 1.19): 100% | viability at 72 h, 30.9 µM ([1]; MRC-5 cells, log [concentration] μM 1.49): 91.9% | viability at 72 h, 63.1 µM ([1]; MRC-5 cells, log [concentration] μM 1.8): 79.9% | viability at 72 h, 126 µM ([1]; MRC-5 cells, log [concentration] μM 2.1): 61.4% | viability at 72 h, 251 µM ([1]; MRC-5 cells, log [concentration] μM 2.4): 28.2% | viability at 72 h, 501 µM ([1]; MRC-5 cells, log [concentration] μM 2.7): 20.4% | viability at 72 h, 0.977 µM ([1]; MRC-5 cells, log [concentration] μM -0.01): 93.5% | viability at 72 h, 0.49 µM ([1]; MRC-5 cells, log [concentration] μM -0.31): 100% | viability at 72 h, 0.245 µM ([1]; MRC-5 cells, log [concentration] μM -0.61): 100% | IC50 in PARG-depleted cells relative to control cells (MDA-MB-231 PARG-KD cells): ~10 fold | fraction of PARG-KD cells responding to the PARGi (MDA-MB-231 PARG-KD cells): 50% | IC50 (MDA-MB-231 PARG-KD cells; Homo sapiens, MDA-MB-231, growth inhibitory, 72 h): 34.4 ± 13.3 µM | Viability (MDA-MB-231 PARG-KD cells; log concentration μM 0.193959, 72 h): 105.597% | Viability (MDA-MB-231 PARG-KD cells; log concentration μM 0.49485, 72 h): 101.727% | Viability (MDA-MB-231 PARG-KD cells; log concentration μM 0.79588, 72 h): 99.9152% | Viability (MDA-MB-231 PARG-KD cells; log concentration μM 1.09691, 72 h): 97.9571% | Viability (MDA-MB-231 PARG-KD cells; log concentration μM 2, 72 h): 52.7893% | Viability (MDA-MB-231 PARG-KD cells; log concentration μM 2.30103, 72 h): 51.5972% | Viability (MDA-MB-231 PARG-KD cells; log concentration μM -0.10735, 72 h): 104.639% | Viability (MDA-MB-231 PARG-KD cells; log concentration μM -0.40782, 72 h): 106.229% | Viability (MDA-MB-231 PARG-KD cells; log concentration μM -0.70997, 72 h): 102.262% | Viability (MDA-MB-231 PARG-KD cells; log concentration μM -1.00877, 72 h): 100% | average IdU tract (HeLa cells; 2 h pretreatment, no genotoxic stress): 6.0 μm | average IdU tract length (HeLa cells; low-dose hydroxyurea): 5.0 μm
